Series [1] has as its system PCSK9. Nature of the series: Western blot, PCSK9 protein level in HepG2. It counts as cell-based, human. Particulars: active at 50 µM in hepatic cells vs 250 µM; PCSK9 protein level and secretion. As to the method:
(§1) A total of 1.5 × 10^5 HepG2 cells/well (24-well plate) were treated with 50 μM of P5 and P5 analogs for 24 h. Immunoblotting experiments were performed using optimized protocol. See Supplementary Materials for further details.
(§2) PBS for 1.5 h at RT. LDLR primary antibody solution (1:3000 in 5% BSA in PBS, 25 µL/well) was incubated O/N at +4 °C. Subsequently, the primary antibody solution was discarded and each sample was washed 5 times with 100 µL/well of PBS (each wash was for 5 min at RT). Goat anti-rabbit Ig-HRP secondary antibody solution (Santa Cruz) (1:6000 in 5% BSA in PBS, 50 µL/well), was added and incubated 1 h at RT. […] The reaction was stopped with 2 M H2SO4 and then the absorbance at 450 nm was measured using the microplate reader Synergy H1 (Winoo-ski, VT, USA). After the read, cells were stained by adding 1 X Janus Green stain, incubat-ing for 5 min at RT. […]
(§3) Afterward 100 µL 0.5 M HCl for well were added and incubated for 10 min. After 10 sec-onds shaking, the OD at 595 nm was measured using the microplate reader Synergy H1 […]
(§4) Fluorescent LDL Uptake. […] The degree of LDL uptake was measured using the Synergy H1 fluo-rescent plate reader (Winooski, VT, USA) (excitation and emission wavelengths 540 and 570 nm, respectively). Fluorescent LDL-uptake was finally assessed following optimized […]
On the technique in general: In western blotting, separated proteins are transferred to a membrane and probed.

The next series relates to LDLR. The experiment in a line: Western blot, LDLR protein level in HepG2. It counts as cell-based, human. Conditions: 50 µM, 24 h. How it is done: as §1, §2, §3, §4
For series [2], the system named is PCSK9. The arrangement: method as in 3 sources, ref 49 = [49]; PMID 35011066; doi:10.3390/nu14010193; 49. Macchi C. Greco M.F. Ferri N. Magni P. Arnoldi A. Corsini A. Sirtori C.R. Ruscica M. Lammi C. Impact of Soy β-Conglycinin Peptides on PCSK9 Protein Expression in HepG2 Cells Nutrients 2021 14 193 ||| ref 22 = [22]; doi:10.1016/j.jff.2017.02.009; 22. Zanoni C. Aiello G. Arnoldi A. Lammi C. Investigations on the hypocholesterolaemic activity of […] and LTFPGSAED, two peptides from lupin β-conglutin: Focus on LDLR and PCSK9 pathways J. Fu ||| ref 24 = [24]; PMID 33808034; doi:10.3390/nu13030863; 24. Lammi C. Aiello G. Bollati C. Li J. Bartolomei M. Ranaldi G. Ferruzza S. Fassi E.M.A. Grazioso G. Sambuy Y. Trans-Epithelial Transport, Metabolism, and Biological Activity Assessment of the Multi-. Conditions: through downregulation of HNF-1α; cited from earlier work.

The next series has as its system SREBP-2. Nature of the series: Western blot, SREBP-2 protein level in HepG2. In kind it is cell-based, human. Particulars: 50 µM, 24 h. How it is done: as §1, §2, §3, §4
A further series has as its target T1, PCSK9-LDLR (Homo sapiens, UniProt Q8NBP7).
T1 construct: purchased CycLex Co., Nagano, Japan (CircuLex)
Particulars: parent peptide; read-out: IC50, PCSK9-LDLR binding (P5); cited from earlier work.

For series [3], the system named is human intestinal Caco-2 cells. Particulars: cited from earlier work.

pIC50: −log10 of the molar value.

The values that follow come from article PMC8951016, “Computational Design and Biological Evaluation of Analogs of Lupin Peptide P5 Endowed with Dual PCSK9/HMG-CoAR Inhibiting Activity” (Pharmaceutics, 2022).

In general, pIC50 refers to −log10 of the IC50, conventionally taken in molar units.

T1 sequence (Q8NBP7 153-692): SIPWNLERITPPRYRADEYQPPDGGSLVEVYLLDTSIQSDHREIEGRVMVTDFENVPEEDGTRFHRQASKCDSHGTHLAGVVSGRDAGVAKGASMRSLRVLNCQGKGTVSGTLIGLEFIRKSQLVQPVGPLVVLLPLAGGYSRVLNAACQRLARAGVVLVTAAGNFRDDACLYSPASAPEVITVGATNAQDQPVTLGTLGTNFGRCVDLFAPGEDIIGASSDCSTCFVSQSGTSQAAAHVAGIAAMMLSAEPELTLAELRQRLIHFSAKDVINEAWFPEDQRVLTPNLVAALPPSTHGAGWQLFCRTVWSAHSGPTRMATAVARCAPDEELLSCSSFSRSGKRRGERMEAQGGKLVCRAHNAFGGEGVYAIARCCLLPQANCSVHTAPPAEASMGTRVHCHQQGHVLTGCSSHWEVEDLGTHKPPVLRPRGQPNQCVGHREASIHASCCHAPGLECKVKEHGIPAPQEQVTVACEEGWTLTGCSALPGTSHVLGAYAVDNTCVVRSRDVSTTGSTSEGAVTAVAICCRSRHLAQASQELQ
T1 sequence (Q8NBP7 31-152 partner limits assumed): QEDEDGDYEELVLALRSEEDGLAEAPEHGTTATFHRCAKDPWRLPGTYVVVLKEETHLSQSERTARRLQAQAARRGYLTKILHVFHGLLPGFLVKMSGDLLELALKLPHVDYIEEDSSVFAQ

Consider LILPKHSDAD [Peptide P5], for which the “fold potency vs YVVNPDNNEN” value in the series with PCSK9 [1] was 5 -fold. In addition, the “LDLR protein level (words, P5)” value in the series on LDLR is listed as “augmentation of the LDLR protein levels”. In addition, in the series on PCSK9 [2], the “PCSK9 protein levels and secretion (P5, earlier work, words)” value was “reduces the PCSK9 protein levels and its secretion”. In addition, the “SREBP-2 protein level (words, P5)” value with SREBP-2 is recorded as “upregulation of the SREBP-2 transcription factor level”. The pIC50 with PCSK9-LDLR is 5.80. Further, in series [3], the “metabolism during Caco-2 transport” value is recorded as “partially metabolized in a breakdown fragment (LPKHSDAD, P5-met)” and the “transport by differentiated Caco-2 cells” value is listed as “successfully transported”.
